Experimental findings from patent publication US8399459B2, “1,4 oxazines as BACE1 and/or BACE2 inhibitors” (Hoffmann-La Roche Inc., priority 2011, dated 2013) are described below.

Counter-ions that a name gives are not always drawn.

By IC50 is commonly meant the concentration at which inhibition is half-maximal. A higher IC50 goes with lower potency.

T1 sequence (P56817 46-501): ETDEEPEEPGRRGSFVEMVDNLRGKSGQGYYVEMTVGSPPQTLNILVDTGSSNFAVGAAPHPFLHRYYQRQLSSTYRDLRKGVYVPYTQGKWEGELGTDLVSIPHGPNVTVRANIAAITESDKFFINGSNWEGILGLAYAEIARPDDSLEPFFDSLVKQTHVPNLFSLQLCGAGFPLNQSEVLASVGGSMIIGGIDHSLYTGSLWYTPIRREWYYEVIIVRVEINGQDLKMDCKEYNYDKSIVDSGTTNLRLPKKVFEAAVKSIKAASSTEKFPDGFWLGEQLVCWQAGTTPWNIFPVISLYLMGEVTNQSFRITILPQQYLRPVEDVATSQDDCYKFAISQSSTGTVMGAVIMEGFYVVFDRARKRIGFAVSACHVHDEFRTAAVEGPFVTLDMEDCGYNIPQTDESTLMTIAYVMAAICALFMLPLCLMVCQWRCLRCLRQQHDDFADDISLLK

This experiment concerns the target T1, BACE1 (Homo sapiens, UniProt P56817).
T1 construct: Human HEK293 cells which are stably transfected with a vector expressing a cDNA of the human APP wt gene (APP695); endogenous in cells; host or cells: HEK293 (human), stably transfected with human APP695 wt only
As to the kind of experiment: Cellular Aβ-lowering assay (Aβ40 ELISA, HEK293 cells expressing human APP695). Format: cell-based. Particulars: HEK293 cells stably expressing human APP695; Aβ40 in supernatant after 18-20 hrs. The procedure:
Cellular Aβ-Lowering Assay:
Human HEK293 cells which are stably transfected with a vector expressing a cDNA of the human APP wt gene (APP695) were used to assess the potency of the compounds in a cellular assay. The cells were seeded in 96-well microtiter plates in cell culture medium (Iscove, plus 10% (v/v) fetal bovine serum, glutamine, penicillin/streptomycin) to about 80% confluence and the compounds were added at a 10× concentration in 1/10 volume of medium without FCS containing 8% DMSO (final concentration of DMSO was kept at 0.8% v/v). After 18-20 hrs incubation at 37° C. and 5% CO2 in a humidified incubator the culture supernatant was harvested for the determination of Aβ40 concentrations. 96well ELISA plates (e.g., Nunc MaxiSorb) were coated with monoclonal antibody which specifically recognize the C-terminal end of Aβ40 (Brockhaus et al., NeuroReport 9, 1481-1486; 1998). After blocking of non-specific binding sites with e.g. 1% BSA and washing, the culture supernatants were added in suitable dilutions together with a horseradish peroxidase-coupled Aβ detection antibody (e.g., antibody 4G8, Senetek, Maryland Heights, Mo.) and incubated for 5 to 7 hrs. Subsequently the wells of the microtiter plate were washed extensively with Tris-buffered saline containing 0.05% Tween 20 and the assay was developed with tetramethylbenzidine/H2O2 in citric acid buffer. After stopping the reaction with one volume 1 N H2SO4 the reaction was measured in an ELISA reader at 450 nm wavelength. The concentrations of Aβ in the culture supernatants were calculated from a standard curve obtained with known amounts of pure Aβ peptide.
For `COc1cncc(-c2cccc(C3(C)COCC(N)=N3)c2)c1` (stereo not shown) [Example 1, 5-[3-(5-Methoxy-pyridin-3-yl)-phenyl]-5-methyl-5,6-dihydro-2H-[1,4]oxazin-3-ylamine], the midpoint of inhibition, the IC50, lay at 0.1 µM. For `CC1(c2cccc(-c3ccc(F)cc3)c2)COCC(N)=N1` (stereo not shown) [Example 2, 5-(4′-Fluoro-biphenyl-3-yl)-5-methyl-5,6-dihydro-2H-[1,4]oxazin-3-ylamine], the IC50 is 1.17 µM. To `CC1(c2cccc(-c3ccsc3)c2)COCC(N)=N1` (stereo not shown) [Example 3, 5-Methyl-5-(3-thiophen-3-yl-phenyl)-5,6-dihydro-2H-[1,4]oxazin-3-ylamine] belongs 1.06 µM; to `CC1(c2cccc(-c3cccc(Cl)c3)c2)COCC(N)=N1` (stereo not shown) [Example 4, 5-(3′-Chloro-biphenyl-3-yl)-5-methyl-5,6-dihydro-2H-[1,4]oxazin-3-ylamine], 0.39 µM; to `CC1(c2cccc(-c3cc(Cl)ccc3Cl)c2)COCC(N)=N1` (stereo not shown) [Example 5, 5-(2′,5′-Dichloro-biphenyl-3-yl)-5-methyl-5,6-dihydro-2H-[1,4]oxazin-3-ylamine], 1.09 µM. To `CC1(c2cccc(-c3cc(Cl)cc(Cl)c3Cl)c2)COCC(N)=N1` (stereo not shown) [Example 6, 5-Methyl-5-(2′,3′,5′-trichloro-biphenyl-3-yl)-5,6-dihydro-2H-[1,4]oxazin-3-ylamine] belongs 4.06 µM. In turn, `CC1(c2cccc(-c3ccc(F)c(Cl)c3)c2)COCC(N)=N1` (stereo not shown) [Example 7, 5-(3′-Chloro-4′-fluoro-biphenyl-3-yl)-5-methyl-5,6-dihydro-2H-[1,4]oxazin-3-ylamine] displayed an IC50 of 0.65 µM. `COc1cc(Cl)cc(-c2cccc(C3(C)COCC(N)=N3)c2)c1` (stereo not shown) [Example 8, 5-(3′-Chloro-5′-methoxy-biphenyl-3-yl)-5-methyl-5,6-dihydro-2H-[1,4]oxazin-3-ylamine] came in with an IC50 of 1.49 µM. Molecule `Cc1cc(Cl)cc(-c2cccc(C3(C)COCC(N)=N3)c2)c1F` (stereo not shown) [Example 10, 5-(5′-Chloro-2′-fluoro-3′-methyl-biphenyl-3-yl)-5-methyl-5,6-dihydro-2H-[1,4]oxazin-3-ylamine] had an IC50 of 1.5 µM.

Turning to `CC1(c2cccc(-c3cc(Cl)cc(C(F)(F)F)c3)c2)COCC(N)=N1` (stereo not shown) [Example 11, 5-(5′-Chloro-3′-trifluoromethyl-biphenyl-3-yl)-5-methyl-5,6-dihydro-2H-[1,4]oxazin-3-ylamine], it took 1.84 µM to reach half-maximal inhibition (IC50). To `CC1(c2cccc(-c3cc(Cl)cc(C(N)=O)c3)c2)COCC(N)=N1` (stereo not shown) [Example 12, 3′-(5-Amino-3-methyl-3,6-dihydro-2H-[1,4]oxazin-3-yl)-5-chloro-biphenyl-3-carboxylic acid amide] belongs 1.12 µM; to `CC1(c2cccc(-c3cc(Cl)cc(C(=O)N4CCOCC4)c3)c2)COCC(N)=N1` (stereo not shown) [Example 13, [3′-(5-Amino-3-methyl-3,6-dihydro-2H-[1,4]oxazin-3-yl)-5-chloro-biphenyl-3-yl]-morpholin-4-yl-methanone], 2.39 µM; to `CC1(c2cccc(-c3cccc(OC(F)F)c3)c2)COCC(N)=N1` (stereo not shown) [Example 14, 5-(3′-Difluoromethoxy-biphenyl-3-yl)-5-methyl-5,6-dihydro-2H-[1,4]oxazin-3-ylamine], 0.48 µM. For `CC1(c2cccc(-c3cccc(OC(F)(F)F)c3)c2)COCC(N)=N1` (stereo not shown) [Example 15, 5-Methyl-5-(3′-trifluoromethoxy-biphenyl-3-yl)-5,6-dihydro-2H-[1,4]oxazin-3-ylamine] the value was 2.31 µM.

The molecule `CC1(c2cccc(-c3cccc(C#N)c3)c2)COCC(N)=N1` (stereo not shown) [Example 16, 3′-(5-Amino-3-methyl-3,6-dihydro-2H-[1,4]oxazin-3-yl)-biphenyl-3-carbonitrile] had an IC50 of 0.28 µM. For `CC1(c2cccc(-c3cccc(CC#N)c3)c2)COCC(N)=N1` (stereo not shown) [Example 17, [3′-(5-Amino-3-methyl-3,6-dihydro-2H-[1,4]oxazin-3-yl)-biphenyl-3-yl]-acetonitrile] the value was 1.06 µM. On to `CC(C)(C)c1ccc(-c2cccc(C3(C)COCC(N)=N3)c2)cc1` (stereo not shown) [Example 18, 5-(4′-tert-butyl-biphenyl-3-yl)-5-methyl-5,6-dihydro-2H-[1,4]oxazin-3-ylamine formate], for which the IC50 turned out to be 6.12 µM.

`CC1(c2cccc(-c3ccnc(Cl)c3)c2)COCC(N)=N1` (stereo not shown) [Example 19, 5-[3-(2-chloro-pyridin-4-yl)-phenyl]-5-methyl-5,6-dihydro-2H-[1,4]oxazin-3-ylamine formate]: the IC50 is 1.06 µM. `CC1(c2cccc(-c3cc(Cl)cnc3Cl)c2)COCC(N)=N1` (stereo not shown) [Example 20, 5-[3-(2,5-Dichloro-pyridin-3-yl)-phenyl]-5-methyl-5,6-dihydro-2H-[1,4]oxazin-3-ylamine] registered an IC50 of 0.49 µM. To `CC1(c2cccc(-c3ccc4c(c3)OC(F)(F)O4)c2)COCC(N)=N1` (stereo not shown) [Example 21, 5-[3-(2,2-Difluoro-benzo[1,3]dioxol-5-yl)-phenyl]-5-methyl-5,6-dihydro-2H-[1,4]oxazin-3-ylamine] belongs 4.55 µM; to `CC1(c2cccc(-c3ccc4c(c3)OCO4)c2)COCC(N)=N1` (stereo not shown) [Example 22, 5-(3-Benzo[1,3]dioxol-5-yl-phenyl)-5-methyl-5,6-dihydro-2H-[1,4]oxazin-3-ylamine], 1.06 µM; to `Cn1ncc2c(-c3cccc(C4(C)COCC(N)=N4)c3)cccc21` (stereo not shown) [Example 23, 5-Methyl-5-[3-(1-methyl-1H-indazol-4-yl)-phenyl]-5,6-dihydro-2H-[1,4]oxazin-3-ylamine], 3.66 µM. To `CC1(c2cccc(-c3cc4ccc(Cl)cc4[nH]3)c2)COCC(N)=N1` (stereo not shown) [Example 24, 5-[3-(6-Chloro-1H-indol-2-yl)-phenyl]-5-methyl-5,6-dihydro-2H-[1,4]oxazin-3-ylamine] belongs 12.7 µM; to `CC1(c2cccc(-c3ccc4[nH]ccc4c3)c2)COCC(N)=N1` (stereo not shown) [Example 25, 5-[3-(1H-Indol-5-yl)-phenyl]-5-methyl-5,6-dihydro-2H-[1,4]oxazin-3-ylamine], 6.41 µM; to `Cc1cc(-c2cccc(C3(C)COCC(N)=N3)c2)ccc1Cl` (stereo not shown) [Example 26, 5-(4′-Chloro-3′-methyl-biphenyl-3-yl)-5-methyl-5,6-dihydro-2H-[1,4]oxazin-3-ylamine], 13 µM.

In turn, `CC1(c2cccc(-c3ccc(F)cc3F)c2)COCC(N)=N1` (stereo not shown) [Example 27, 5-(2′,4′-Difluoro-biphenyl-3-yl)-5-methyl-5,6-dihydro-2H-[1,4]oxazin-3-ylamine] displayed an IC50 of 1.06 µM. To `CC1(c2cccc(-c3cc(F)cc(F)c3)c2)COCC(N)=N1` (stereo not shown) [Example 28, 5-(3′,5′-Difluoro-biphenyl-3-yl)-5-methyl-5,6-dihydro-2H-[1,4]oxazin-3-ylamine] belongs 2.08 µM; to `CC1(c2cccc(-c3ccccc3Cl)c2)COCC(N)=N1` (stereo not shown) [Example 29, 5-(2′-Chloro-biphenyl-3-yl)-5-methyl-5,6-dihydro-2H-[1,4]oxazin-3-ylamine], 1.06 µM.

`CCOc1cccc(-c2cccc(C3(C)COCC(N)=N3)c2)c1` (stereo not shown) [Example 30, 5-(3′-Ethoxy-biphenyl-3-yl)-5-methyl-5,6-dihydro-2H-[1,4]oxazin-3-ylamine] registered an IC50 of 9.1 µM.

As to `CC1(c2ccc(F)c(-c3cc(Cl)cc(Cl)c3)c2)COCC(N)=N1` (stereo not shown) [Example 31, 5-(3′,5′-Dichloro-6-fluoro-biphenyl-3-yl)-5-methyl-5,6-dihydro-2H-[1,4]oxazin-3-ylamine], the IC50 stood at 1 µM. For `CC1(c2cccc(-c3ccc(Cl)cn3)c2)COCC(N)=N1` (stereo not shown) [Example 33, 5-[3-(5-Chloro-pyridin-2-yl)-phenyl]-5-methyl-5,6-dihydro-2H-[1,4]oxazin-3-ylamine] the value was 12.6 µM; for `CC1(c2cccc(-c3cncc(Cl)c3)c2)COCC(N)=N1` (stereo not shown) [Example 34, 5-[3-(5-Chloro-pyridin-3-yl)-phenyl]-5-methyl-5,6-dihydro-2H-[1,4]oxazin-3-ylamine], 0.39 µM. `CC1(c2cccc(-c3cncc(C#N)c3)c2)COCC(N)=N1` (stereo not shown) [Example 38, 5-(3-(5-Amino-3-methyl-3,6-dihydro-2H-1,4-oxazin-3-yl)phenyl)nicotinonitrile] yielded an IC50 of 0.31 µM. The molecule `CC1(c2cccc(-c3cccnc3F)c2)COCC(N)=N1` (stereo not shown) [Example 39, 5-(3-(2-fluoropyridin-3-yl)phenyl)-5-methyl-5,6-dihydro-2H-1,4-oxazin-3-amine] came in with an IC50 of 0.28 µM. Take `CC1(c2cccc(-c3ccc(F)nc3F)c2)COCC(N)=N1` (stereo not shown) [Example 40, 5-(3-(2,6-difluoropyridin-3-yl)phenyl)-5-methyl-5,6-dihydro-2H-1,4-oxazin-3-amine]: the IC50 was 0.53 µM. The molecule `CC1(c2cccc(-c3cccc(N)c3)c2)COCC(N)=N1` (stereo not shown) [Example 41, 5-(3′-Amino-biphenyl-3-yl)-5-methyl-5,6-dihydro-2H-[1,4]oxazin-3-ylamine] came in with an IC50 of 3.07 µM. To `COCC#Cc1cccc(C2(C)COCC(N)=N2)c1` (stereo not shown) [Example 42, 5-[3-(3-Methoxy-prop-1-ynyl)-phenyl]-5-methyl-5,6-dihydro-2H-[1,4]oxazin-3-ylamine] belongs 1.06 µM.
